Test results from patent US8841233B2, “Herbicidal compositions comprising 4-amino-3-chloro-5-fluoro-6-(4-chloro-2-fluoro-3-methoxyphenyl) pyridine-2-carboxylic acid or a derivative thereof and 4-hydroxyphenyl-pyruvate dioxygenase (HPPD) inhibitors” (Dow Agrosciences LLC, priority 2012, dated 2014).
Where “and” joins values, the source holds several entries; their conditions need not be identical. Identical values can stand only once.

What was measured:
Assay in all cases: Post-emergence foliar-applied weed control, greenhouse (Example I);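 on Visual Weed Control (%) - 20 DAA IPOHE Obs: visual score 0 no injury to 100 complete kill versus untreated plants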
DIGSA = type: in vivo, Digitaria sanguinalis (L.) Scop.
Text: (§1) Evaluation of Post-emergence Foliar-Applied Herbicidal Mixtures for Weed Control in Direct Seeded Rice
(§2) Seeds or nutlets of the desired test plant species were planted in a soil matrix prepared by mixing a loam or sandy loam soil (e.g., 28.6 percent silt, 18.8 percent clay, and 52.6 percent sand, with a pH of about 5.8 and an organic matter content of about 1.8 percent) and calcareous grit in an 80 to 20 ratio. The soil matrix was contained in plastic pots with a volume of 1 quart and a surface area of 83.6 square centimeters (cm^2). When required to ensure good germination and healthy plants, a fungicide treatment and/or other chemical or physical treatment was applied. The plants were grown for 8-22 days in a greenhouse with an approximate 14 h photoperiod which was maintained at about 29° C. during the day and 26° C. during the night. Nutrients (Peters Excel® 15-5-15 5-Ca 2-Mg and iron chelate) were applied in the irrigation solution as needed and water was added on a regular basis. Supplemental lighting was provided with overhead metal halide 1000-Watt lamps as necessary. The plants were employed for testing when they reached the first through fourth true leaf stage.
(§3) Treatments consisted of the acid or esters of 4-amino-3-chloro-5-fluoro-6-(4-chloro-2-fluoro-3-methoxy-phenyl)pyridine-2-carboxylic acid (Compound A), each formulated as an SC (suspension concentrate), and various herbicidal components alone and in combination. Forms of Compound A were applied on an acid equivalent basis.
(§4) Other herbicidal components were applied on an active ingredient basis and included 4-hydroxyphenyl pyruvate dioxygenase (HPPD)-inhibiting herbicides mesotrione formulated as Callisto®, sulcotrione formulated as Mikado®, pyrazolynate formulated as Sunbird® 10% GR, and benzobicyclon formulated as Benzobicyclon 3.5%.
(§5) Treatment requirements were calculated based upon the rates being tested, the concentration of active ingredient or acid equivalent in the formulation, and a 12 mL application volume at a rate of 187 L/ha.
(§6) For treatments comprised of formulated compounds, measured amounts of compounds were placed individually in 25 mL glass vials and diluted in a volume of 1.25% (v/v) Agri-Dex® crop oil concentrated to obtain 12× stock solutions. […] Application solutions were prepared by adding an appropriate amount of each stock solution (e.g., 1 mL) and diluted to the appropriate final concentrations with the addition of 10 mL of an aqueous mixture of 1.25% (v/v) crop oil concentrate so that the final spray solutions contained 1.25+/−0.05% (v/v) crop oil concentrate.
(§7) For treatments comprised of formulated and technical compounds, weighed amounts of the technical materials were placed individually in 25 mL glass vials and dissolved in a volume of 97:3 v/v acetone/DMSO to obtain 12× stock solutions, and measured amounts of the formulated compounds were placed individually in 25 mL glass vials and diluted in a volume of 1.5% (v/v) crop oil concentrate or water to obtain 12× stock solutions. […] Application solutions were prepared by adding an appropriate amount of each stock solution (e.g., 1 mL) and diluted to the appropriate final concentrations with the addition of an appropriate amount of an aqueous mixture of 1.5% (v/v) crop oil concentrate so that the final spray solutions contained 1.25% (v/v) crop oil concentrate. As required, additional water and/or 97:3 v/v acetone/DMSO was added to individual application solutions so that the final acetone and DMSO concentrations of the application solutions being compared were 8.1% and 0.25%, respectively.
(§8) All stock solutions and applications solutions were visually inspected for compound compatibility prior to application. Spray solutions were applied to the plant material with an overhead Mandel track sprayer equipped with a 8002E nozzles calibrated to deliver 187 L/ha over an application area of 0.503 m^2 at a spray height of 18 to 20 inches (46 to 50 cm) above average plant canopy height. […]

ECHCO = type: in vivo, Echinochloa colona (L.) Link
Text: as §1, §2, §3, §4, §5, §6, §7, §8

IPOHE = type: in vivo, Ipomoea hederacea Jacq.
Text: as §1, §2, §3, §4, §5, §6, §7, §8

BRAPP = type: in vivo
Text: as §1, §2, §3, §4, §5, §6, §7, §8

SMILES: COc1c(Cl)ccc(-c2nc(C(=O)OCc3ccccc3)c(Cl)c(N)c2F)c1F [Compound A Benzyl Ester, benzyl ester of 4-amino-3-chloro-5-fluoro-6-(4-chloro-2-fluoro-3-methoxy-phenyl)pyridine-2-carboxylic acid]
- Visual Weed Control (%) - 20 DAA DIGSA Obs (DIGSA; 4.38 gae/ha): 25%
- Visual Weed Control (%) - 20 DAA DIGSA Obs (DIGSA; 8.75 gae/ha): 40%
- Visual Weed Control (%) - 20 DAA DIGSA Obs (DIGSA; 17.5 gae/ha): 50%
- Visual Weed Control (%) - 20 DAA DIGSA Obs (DIGSA; 35 gae/ha): 38%
- Visual Weed Control (%) - 20 DAA ECHCO Obs (ECHCO; 4.38 gae/ha): 40%
- Visual Weed Control (%) - 22 DAA ECHCO Obs (ECHCO; 4.38 gae/ha): 30%
- Visual Weed Control (%) - 22 DAA ECHCO Obs (ECHCO; 8.75 gae/ha): 55%
- Visual Weed Control (%) - 20 DAA IPOHE Obs (IPOHE; 4.38 gae/ha): 10%
- Visual Weed Control (%) - 20 DAA IPOHE Obs (IPOHE; 8.75 gae/ha): 10%
- Visual Weed Control (%) - 20 DAA IPOHE Obs (IPOHE; 17.5 gae/ha): 20%
- Visual Weed Control (%) - 20 DAA BRAPP Obs (BRAPP; 4.38 gae/ha): 50%
- Visual Weed Control (%) - 20 DAA BRAPP Obs (BRAPP; 8.75 gae/ha): 70%

SMILES: COc1c(Cl)ccc(-c2nc(C(=O)O)c(Cl)c(N)c2F)c1F [Compound A Acid, 4-amino-3-chloro-6-(4-chloro-2-fluoro-3-methoxyphenyl)-5-fluoropyridine-2-carboxylic acid]
- Visual Weed Control (%) - 20 DAA DIGSA Obs (DIGSA; 4.38 gae/ha): 40%
- Visual Weed Control (%) - 20 DAA DIGSA Obs (DIGSA; 8.75 gae/ha): 45%
- Visual Weed Control (%) - 20 DAA DIGSA Obs (DIGSA; 17.5 gae/ha): 45%
- Visual Weed Control (%) - 20 DAA ECHCO Obs (ECHCO; 4.38 gae/ha): 40%
- Visual Weed Control (%) - 22 DAA ECHCO Obs (ECHCO; 5.3 gae/ha): 65%
- Visual Weed Control (%) - 20 DAA ECHCO Obs (ECHCO; 8.75 gae/ha): 60%
- Visual Weed Control (%) - 22 DAA ECHCO Obs (ECHCO; 10.6 gae/ha): 65%
- Visual Weed Control (%) - 20 DAA ECHCO Obs (ECHCO; 17.5 gae/ha): 85%
- Visual Control (%) - 20 DAA IPOHE Obs (IPOHE; 4.38 gae/ha): 10%
- Visual Control (%) - 20 DAA IPOHE Obs (IPOHE; 8.75 gae/ha): 35%
- Visual Control (%) - 20 DAA IPOHE Obs (IPOHE; 17.5 gae/ha): 40%
- Visual Weed Control (%) - 21 DAA IPOHE Obs (IPOHE; 17.5 gae/ha): 25%
- Visual Weed Control (%) - 21 DAA IPOHE Obs (IPOHE; 35 gae/ha): 48%
- Visual Weed Control (%) - 20 DAA BRAPP Obs (BRAPP; 8.75 gae/ha): 60% and 80%
- Visual Weed Control (%) - 20 DAA BRAPP Obs (BRAPP; 17.5 gae/ha): 85%
